From ChEMBL document CHEMBL1201862, “PubChem BioAssay data set” (2004) come the findings set out here.

Test systems include A498; CCRF-CEM; EKVX; HL-60; HOP-92; HT-29; IGROV-1; KM12; MOLT-4; OVCAR-3; SF-268; SF-295; SF-539; SNB-19; SNB-75; U-251.
Experiment in all cases: NCI anticancer screen, dose series, 48 h

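Five concentrations, 48 hours, 96-well plates. The concentration for 50% growth inhibition is given as GI50.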 Calls of active or inactive are those of the source. Cut-off read from the data, not from the text of the source: active = GI50 up to about 1.1 µM and inactive = higher. Where only a bound is given, the exact number is not on record here.

For `OCCCCn1cnc2c(O)ncnc21`, the GI50 with A498, in the assay with CCRF-CEM, in the assay on EKVX, in the assay on HL-60, with HOP-92 and in the assay with HT-29 was > 100 µM (inactive) throughout. Also, the GI50 in the assay with IGROV-1, in the assay with KM12, in the assay on MOLT-4, in the assay with OVCAR-3, with SF-268 and in the assay on SF-295 was > 100 µM (inactive) each time. The GI50 in the assay on SF-539, with SNB-19 and in the assay on SNB-75 was > 100 µM (inactive) throughout.
With `CC(=O)NNc1nc(C)c(C(/C=C/c2ccc(Cl)cc2)=N/NC(=S)NN)s1`, the GI50 in the assay with A498, in the assay with CCRF-CEM, in the assay with EKVX, with HL-60, with HOP-92 and with HT-29 was > 100 µM (inactive) each time. Moreover, the GI50 with IGROV-1, with KM12, in the assay with MOLT-4, in the assay on SF-268, with SF-295 and in the assay with SF-539 was > 100 µM (inactive) in each case. For the same compound, the GI50 in the assay on SNB-19, in the assay on SNB-75 and in the assay with U-251 was > 100 µM (inactive) each time.
`CCOC(=O)C(/C(=N/NC(=O)OC)C(=O)Nc1ccc(C(C)=O)cc1)c1cnc2ccccc2n1` (stereo unspecified): the GI50 in the assay with A498, with CCRF-CEM, in the assay on EKVX, with HL-60, in the assay on HOP-92 and with HT-29 was > 100 µM (inactive) in each case. Further, the GI50 in the assay with IGROV-1, with KM12, in the assay on OVCAR-3, with SF-268, with SF-295 and in the assay on SF-539 was > 100 µM (inactive) each time. The figures for the GI50 in the assay on SNB-19, with SNB-75 and with U-251 were > 100 µM (inactive), 90.8 µM (inactive) and > 100 µM (inactive), respectively.
Regarding `CC(C)=CC(=O)Cc1nc2cc(C)c(C)cc2[nH]c1=O`, the GI50 was > 100 µM (inactive) in the assay on A498; > 100 µM (inactive) with CCRF-CEM; 9.89 µM (inactive) in the assay on EKVX; > 100 µM (inactive) with HL-60; 24.9 µM (inactive) in the assay with HOP-92; > 100 µM (inactive) with HT-29. Moreover, the GI50 is > 100 µM (inactive) in the assay with IGROV-1; > 100 µM (inactive) with KM12; > 100 µM (inactive) in the assay with MOLT-4; > 100 µM (inactive) in the assay with OVCAR-3; 99.3 µM (inactive) with SF-268; 90.4 µM (inactive) in the assay on SF-295. Moreover, the GI50 in the assay on SF-539, in the assay on SNB-19, in the assay on SNB-75 and with U-251 was > 100 µM (inactive) each time.
As to `O=c1c2cccc3cccc(c4n1CCCN=4)c32`, the GI50 in the assay on A498 is > 100 µM (inactive); in the assay with CCRF-CEM, 41.6 µM (inactive); in the assay with EKVX it was > 100 µM (inactive); in the assay with HL-60 it was 47.5 µM (inactive); in the assay with HOP-92, > 100 µM (inactive); in the assay with HT-29, > 100 µM (inactive). Moreover, the GI50 is > 100 µM (inactive) with IGROV-1; > 100 µM (inactive) in the assay on KM12; 35.7 µM (inactive) in the assay on MOLT-4; > 100 µM (inactive) in the assay on OVCAR-3; > 100 µM (inactive) with SF-268; > 100 µM (inactive) in the assay on SF-295. For the same compound, the GI50 in the assay with SF-539, in the assay on SNB-75 and in the assay on U-251 was > 100 µM (inactive) in each case.
For `O=C(CCc1n[nH]c(=S)o1)Nc1ccccc1C(F)(F)F`, the GI50 in the assay with A498, in the assay with CCRF-CEM, with EKVX, with HL-60, with HOP-92 and in the assay on HT-29 was > 100 µM (inactive) each time. Further, the GI50 in the assay with IGROV-1, in the assay with KM12, in the assay on MOLT-4, with OVCAR-3, in the assay with SF-268 and in the assay on SF-295 was > 100 µM (inactive) each time. In addition, the GI50 with SF-539, in the assay with SNB-19, in the assay on SNB-75 and with U-251 was > 100 µM (inactive) in each case.
As for `COc1ccc([C@@H]2CC(=O)N2)cc1`, the GI50 in the assay with A498, with CCRF-CEM, with EKVX, in the assay on HL-60, with HOP-92 and with HT-29 was > 100 µM (inactive) in each case. Further, the GI50 with IGROV-1, with KM12, in the assay on MOLT-4, in the assay on SF-268, in the assay with SF-295 and in the assay with SF-539 was > 100 µM (inactive) in each case. The GI50 in the assay on SNB-19, in the assay on SNB-75 and in the assay with U-251 was > 100 µM (inactive) in each case.
With `CC(=O)C1=CSC2[C@H](NC(=O)Cc3ccccc3)C(=O)N2C1C(=O)OC(c1ccccc1)c1ccccc1` (stereo partly specified), the GI50 is > 100 µM (inactive) in the assay on A498; 23.1 µM (inactive) with CCRF-CEM; > 100 µM (inactive) in the assay with EKVX; 35.2 µM (inactive) in the assay with HL-60; 46.5 µM (inactive) in the assay on HOP-92; > 100 µM (inactive) in the assay on HT-29. The GI50 in the assay with IGROV-1 is > 100 µM (inactive); in the assay on KM12, > 100 µM (inactive); in the assay with MOLT-4, 35.8 µM (inactive); in the assay on OVCAR-3, > 100 µM (inactive); in the assay with SF-268, 47.6 µM (inactive); in the assay with SF-295, 40.7 µM (inactive). Further, the values for the GI50 with SF-539, in the assay on SNB-19 and in the assay on SNB-75 were > 100 µM (inactive), > 100 µM (inactive) and 56.2 µM (inactive), respectively.
On to `CC(=O)OC1CCCn2c1nc1c2C(=O)C(C)=C(N2CC2)C1=O` (stereo unspecified), for which the GI50 with A498 is 0.161 µM (active); in the assay on CCRF-CEM, 3.51 µM (inactive); in the assay on EKVX it was 0.721 µM (active); in the assay on HL-60, 2.41 µM (inactive); in the assay on HOP-92, 27.8 µM (inactive); in the assay on HT-29 it was 0.208 µM (active). Moreover, the GI50 in the assay with IGROV-1 is 0.962 µM (active); with KM12 it was 0.403 µM (active); with MOLT-4, 19.4 µM (inactive); in the assay with OVCAR-3, 0.329 µM (active); in the assay on SF-268 it was 0.251 µM (active); in the assay with SF-295, 0.16 µM (active). Besides, the GI50 was 0.519 µM (active) in the assay on SF-539, 0.338 µM (active) in the assay with SNB-19, 0.301 µM (active) in the assay with SNB-75 and 0.201 µM (active) with U-251.
As for `CN(C)/N=N/c1ccc(C(N)=O)cc1`, the GI50 with A498, in the assay with CCRF-CEM, with EKVX, in the assay with HL-60, in the assay on HOP-92 and in the assay on HT-29 was > 100 µM (inactive) in each case. Moreover, the GI50 in the assay on IGROV-1, in the assay on KM12, in the assay with MOLT-4, in the assay on OVCAR-3, in the assay with SF-268 and in the assay on SF-295 was > 100 µM (inactive) throughout. Moreover, the GI50 with SF-539 was > 100 µM (inactive); in the assay on SNB-19 it was > 100 µM (inactive); in the assay with SNB-75, 97.7 µM (inactive); with U-251 it was > 100 µM (inactive).
`CC(C)=Cc1cc(C(=O)NCCNC(=O)c2cc(C=C(C)C)nc(NC#N)n2)nc(NC#N)n1`: the GI50 with A498, in the assay with CCRF-CEM, in the assay on EKVX, in the assay with HL-60, in the assay with HOP-92 and with HT-29 was > 100 µM (inactive) throughout. The GI50 in the assay with IGROV-1, in the assay with KM12, in the assay with MOLT-4, in the assay on OVCAR-3, with SF-268 and in the assay with SF-295 was > 100 µM (inactive) throughout. The GI50 in the assay on SF-539, with SNB-19, in the assay on SNB-75 and with U-251 was > 100 µM (inactive) throughout.
On to `CC(C)C(Sc1nc(-c2ccccc2)c(-c2ccccc2)[nH]1)C(=O)NN` (stereo unspecified), for which the GI50 in the assay with A498 was > 100 µM (inactive); with CCRF-CEM, 31.6 µM (inactive); in the assay with HL-60, 31.6 µM (inactive); in the assay on HOP-92, 73.1 µM (inactive); in the assay on HT-29 it was > 100 µM (inactive); with IGROV-1, > 100 µM (inactive). Besides, the GI50 in the assay with KM12 is > 100 µM (inactive); in the assay on MOLT-4, 49.7 µM (inactive); with OVCAR-3, 98.4 µM (inactive); in the assay with SF-268, > 100 µM (inactive); with SF-295 it was 74.3 µM (inactive); in the assay with SF-539, > 100 µM (inactive). The GI50 with SNB-19, in the assay on SNB-75 and in the assay on U-251 was > 100 µM (inactive) throughout.
As for `COc1ccc(/C=N\O[Si](C)(C)C(C)(C)C)cc1O[Si](C)(C)C(C)(C)C`, the GI50 in the assay with A498 was 16.7 µM (inactive); in the assay with CCRF-CEM it was 21.6 µM (inactive); in the assay with EKVX it was 21 µM (inactive); in the assay on HL-60, 19.6 µM (inactive); in the assay with HOP-92, 22.6 µM (inactive); with HT-29, 17.7 µM (inactive). Besides, the GI50 in the assay with IGROV-1 was 18.9 µM (inactive); in the assay on KM12 it was 17.6 µM (inactive); in the assay with MOLT-4, 17.4 µM (inactive); in the assay with OVCAR-3 it was 17.1 µM (inactive); in the assay on SF-268 it was 21.5 µM (inactive); with SF-295, 17.2 µM (inactive). The GI50 is 18.5 µM (inactive) with SF-539, 18.9 µM (inactive) in the assay on SNB-19, 22.3 µM (inactive) in the assay on SNB-75 and 19.7 µM (inactive) in the assay on U-251.
